As a reminder, the MIC is the least concentration at which growth counts as inhibited.

Values after ≈ are worked out from the molar mass of the structure shown. Like-named read-outs stand apart in the source and are kept apart here. Where only a bound is given, the exact number is not on record here.

For test [1], the system named is methicillin sensitive S. aureus ATTC 9144 (NCTC 6571). In words: General MIC protocol, Gram positive panel. The settings on record: Staphylococcus aureus, MSSA / NCTC 6571; MSSA 9144. The format is cell-based. Here is the method:
(§1) General Minimum Inhibitory Concentration (MIC) Protocol
(§2) 1. Grow up cultures of bacterial strains to be tested overnight.
(§3) 2. Dilute down overnight cultures to concentration of 1×10^6 bacteria/ml (OD0.01) in Tryptic soy broth (TSB).
(§4) 3. Add 100 μl of TSB media to column 2-column 12 in 96 well plate (keeping column 1 clear).
(§5) 4. Make up compound to a concentration of 64 μg/ml in water (or alternatively to twice the chosen maximum concentration to be tested).
(§6) 5. Add 100 μl of antibiotic solution to the 1st and 2nd columns.
(§7) 6. Using a multichannel pipette take 100 μl from the 2nd column wells and pipette into 3rd column wells and repeat down the 96 well plate (remembering to include controls i.e. uninfected media and media with no antibiotic).
(§8) 7. To each well (except uninfected control row H) add 100 μl of bacterially infected media at a concentration of 1×10^6/ml.
(§9) 8. This dilutes down the concentration of the antibiotic by half (top dose is therefore 32 μg/ml in column 1) and also gives you a starting bacterial concentration of 5×10^5/ml.
(§10) 9. Wrap plate with parafilm to prevent evaporation.
(§11) 10. Leave at desired temperature (37° C. unless specified elsewhere) for 20 hours.
(§12) 11. Next day check plates for growth and measure optical density (i.e. absorbance) at a wavelength of 600 nm (OD600).
(§13) An example of such a plate is shown in FIG. 1 where column A represents wells that receive the top dose 100 μl; column B represents wells that receive the top dose 100 μl+100 μl TSB; and column C represents wells that receive 100 μl TSB. Row H which is marked by a box labelled D represents a blank where the cells receive no bacteria.

A further test relates to EMRSA-15. Kind of test: General MIC protocol, Gram positive panel. The format is cell-based. Here is the method:
as §1, §2, §3, §4, §5, §6, §7, §8, §9, §10, §11, §12, §13

In test [2] the test system is E. faecium VRE NCTC 12204. Kind of test: General MIC protocol, Gram positive panel. The format is cell-based. As for the experimental part:
as §1, §2, §3, §4, §5, §6, §7, §8, §9, §10, §11, §12, §13

Test [3] deals with E. faecalis VRE NCTC 12201. Kind of test: General MIC protocol, Gram positive panel. The format is cell-based. Here is the method: as §1, §2, §3, §4, §5, §6, §7, §8, §9, §10, §11, §12, §13
The subject of a further test is EMRSA-16. In words: General MIC protocol, Gram positive panel. The format is cell-based. Here is the method: as §1, §2, §3, §4, §5, §6, §7, §8, §9, §10, §11, §12, §13
A further test relates to E. faecalis VSE NCTC 775. In words: General MIC protocol, Gram positive panel. The format is cell-based. The settings on record: Enterococcus faecalis, NCTC775; VSE 775. Here is the method:
as §1, §2, §3, §4, §5, §6, §7, §8, §9, §10, §11, §12, §13

The subject of another test is PA01. In words: Effect of efflux pump inhibitors (EPIs) on MIC. The note with it: for +PABN MIC: PABN at 25 μg/ml; for MIC: Pseudomonas aeruginosa. The format is cell-based, P. aeruginosa. Here is the method:
as §2, §3, §4
(§14) 4. Make up compound to a concentration of 64 μg/ml in water.
as §6
(§15) 6. Using a multichannel pipette take 100 μl from the 2nd column wells and pipette into 3rd column wells and repeat down the 96 well plate (remember to include controls i.e. uninfected media and media with no antibiotic).
(§16) 7. To each well (except uninfected control row H) add 50 μl/well of EPI at 4× final concentration in TSB.
(§17) 9. In wells used to test the effect of the EPI carbonyl cyanide 3-chlorophenylhydrazone (CCCP) the CCCP is added at 10 μg/ml final concentration.
(§18) 10. In wells used to test the effect of the EPI phenylalanine-arginine β-naphthylamide (PABN) the PABN is added at 25 μg/ml final concentration.
(§19) 11. In wells used to test the effect of the PABN+Mg, the PABN is added at 25 μg/ml final concentration, with 1 mM MgSO4 in TSB.
(§20) 12. Wrap plate with parafilm to prevent evaporation.
(§21) 13. Leave at desired temperature (37° C. unless specified elsewhere) for 20 hours.
(§22) 14. Next day check plates for growth and measure optical density (i.e. absorbance) at a wavelength of 600 nm (OD600).
(§23) Compound KMR-14-33 was tested against a range of bacterial species using the above protocol. Compound PP-A148 was also tested against a more limited range of bacterial species using the above protocol. For KMR-14-33 measurements were carried out for the compound alone, for the compound plus CCCP, for the compound plus PABN and for the compound plus PABN and plus Mg. For PP-A148 measurements were carried out for the compound alone and for the compound plus PABN.

Another test relates to NCTC 13437. Kind of test: Effect of efflux pump inhibitors (EPIs) on MIC. It counts as cell-based, P. aeruginosa. The note with it: for +PABN MIC: PABN at 25 μg/ml; for MIC: Pseudomonas aeruginosa. Here is the method:
as §2, §3, §4, §14, §6, §15, §16, §17, §18, §19, §20, §21, §22, §23

In a further test the test system is K. pneumonia NCTC 13368. In words: General MIC protocol, Gram negative. It counts as cell-based. The settings on record: Klebsiella pneumoniae, NCTC13368. The procedure, abridged: (§24)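 Overnight cultures diluted to 1×10^6/ml (OD0.01) in TSB and mixed 1:1 with twofold compound dilutions, giving 5×10^5/ml and a 32 μg/ml top concentration. 20 h, 37° C; growth read as absorbance at 600 nm.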

The test system of the next test is K. pneumonia NCTC 13443. In words: General MIC protocol, Gram negative. The format is cell-based. The settings on record: Klebsiella pneumoniae, NCTC13443. The procedure, abridged: as §24
The next test deals with K. pneumonia KP16. In words: General MIC protocol, Gram negative. The format is cell-based. The note with it: Klebsiella pneumoniae, KP16. An outline of the steps:
as §24

The test system of a further test is K. pneumonia M6. Kind of test: General MIC protocol, Gram negative. The format is cell-based. The note with it: Klebsiella pneumoniae; KP-M6. The procedure, abridged:
as §24

Another test deals with A. baumannii NCTC 17978. In words: General MIC protocol, Gram negative. The format is cell-based. The settings on record: Acinetobacter baumannii, NCTC17978. An outline of the steps: as §24
For another test, the system named is A. baumannii AYE. In words: General MIC protocol, Gram negative. It counts as cell-based. The settings on record: Acinetobacter baumannii. The procedure, abridged:
as §24

The subject of a further test is K. pneumonia NCTC 51851. Kind of test: General MIC protocol, Gram negative. The format is cell-based. The note with it: Klebsiella pneumoniae, NCTC51851. An outline of the steps:
as §24

Where [4] appears, read: no EPI, read-out: Control with no EPI MIC.
The mark [5] stands for this setting: NCTC13437, read-out: Control with no EPI MIC.

As for `COc1cc2c(cc1OCCCC(=O)Nc1cc(C(=O)Nc3ccc4sc(C(=O)N(C)C)cc4c3)n(C)c1)N=C[C@@H]1CCCN1C2=O` [KMR-14-33, (S)—N-(2-(dimethylcarbamoyl)benzo[b]thiophen-5-yl)-4-(4-((7-methoxy-5-oxo-2,3,5,11a-tetrahydro-1H-benzo[e]pyrrolo[1,2-a][1,4]-diazepin-8-yl)oxy)butanamido)-1-methyl-1H-pyrrole-2-carboxamide], the MIC in test [1] is 0.03 µg/mL (≈ 0.0457 µM); against EMRSA-15, 0.03 µg/mL (≈ 0.0457 µM); in [2] it was 0.03 µg/mL (≈ 0.0457 µM); in [3] it was 0.03 µg/mL (≈ 0.0457 µM); in the test with EMRSA-16, 0.06 µg/mL (≈ 0.0914 µM); in the test on E. faecalis VSE NCTC 775, 0.03 µg/mL (≈ 0.0457 µM). Also, the minimal inhibitory concentration (MIC) in the test on PA01 (CCCP at 10 μg/ml, read-out: +CCCP MIC) is greater than 32 µg/mL; in the test with PA01 (setting [4]) it was greater than 32 µg/mL; with NCTC 13437 (NCTC13437, read-out: +CCCP MIC), greater than 32 µg/mL; in the test on NCTC 13437 (setting [5]), greater than 32 µg/mL; in the test with K. pneumonia NCTC 13368, 2 µg/mL (≈ 3.05 µM); in the test on K. pneumonia NCTC 13443 it was 2 µg/mL (≈ 3.05 µM). Moreover, the MIC with K. pneumonia KP16 turned out to be 0.25 µg/mL (≈ 0.381 µM); against K. pneumonia M6, 1 µg/mL (≈ 1.52 µM); in the test with A. baumannii NCTC 17978, 0.5 µg/mL (≈ 0.761 µM); in the test with A. baumannii AYE it was 1 µg/mL (≈ 1.52 µM); against K. pneumonia NCTC 51851, 2 µg/mL (≈ 3.05 µM). The entries for the “+PABN MIC” value with PA01 and in the test with NCTC 13437 (NCTC 13437) were 4 µg/mL and 16 µg/mL, respectively. For the same molecule, the “+PABN + Mg MIC” value in the test on PA01 (PABN at 25 μg/ml with 1 mM MgSO4) came to 2 µg/mL; in the test on NCTC 13437 (NCTC 13437, PABN at 25 μg/ml with 1 mM MgSO4), 16 µg/mL.
On to `COc1cc2c(cc1OCCCC(=O)Nc1cc(C(=O)Nc3ccc4oc(C(=O)N5CCSCC5)cc4c3)n(C)c1)N=C[C@@H]1CCCN1C2=O` [PP-A148, (S)-4-(4-((7-methoxy-5-oxo-2,3,5,11a-tetrahydro-1H-benzo-[e]pyrrolo[1,2-a][1,4]diazepin-8-yl)oxy)butanamido)-1-methyl-N-(2-(thiomorpholine-4-carbonyl)benzofuran-5-yl)-1H-pyrrole-2-carboxamide], for which the MIC in test [1] is 0.5 µg/mL (≈ 0.716 µM); in the test on EMRSA-15 it was 2 µg/mL (≈ 2.86 µM); in test [2] it was 0.01 µg/mL (≈ 0.0143 µM); in [3], 0.25 to 0.5 µg/mL (≈ 0.358 to 0.716 µM); against EMRSA-16, 2 µg/mL (≈ 2.86 µM); in the test with E. faecalis VSE NCTC 775 it was 1 µg/mL (≈ 1.43 µM). The MIC in the test on PA01 (setting [4]) was 128 µg/mL (≈ 183 µM); in the test on NCTC 13437 (setting [5]), 16 µg/mL (≈ 22.9 µM); against K. pneumonia NCTC 13368 it was 16 to 32 µg/mL (≈ 22.9 to 45.8 µM); in the test on K. pneumonia NCTC 13443, 16 µg/mL (≈ 22.9 µM); in the test with K. pneumonia KP16 it was 0.25 to 0.5 µg/mL (≈ 0.358 to 0.716 µM); against K. pneumonia M6, 0.25 to 0.5 µg/mL (≈ 0.358 to 0.716 µM). The results for the MIC with A. baumannii NCTC 17978, in the test with A. baumannii AYE and with K. pneumonia NCTC 51851 were 2 µg/mL (≈ 2.86 µM), 2 µg/mL (≈ 2.86 µM) and 4 µg/mL (≈ 5.72 µM), respectively. Also, the “+PABN MIC” value lay in the range of 4 to 8 µg/mL with PA01 and 0.25 to 2 µg/mL in the test with NCTC 13437 (NCTC 13437).

Values taken from patent US10640507B2, “PBD antibacterial agents” (KING'S COLLEGE LONDON, priority 2015, dated 2020).
